Measurements: patent US9924723B2 (THE REGENTS OF THE UNIVERSITY OF COLORADO, A BODY CORPORATE, priority 2013, dated 2018)

Experiments:
[1] = test system: Halothiobacillus neapolitanus strains; details: cited from earlier work
[2] = Metal desorption from pre-loaded GAC in phosphate or citrate buffer solutions at various pH; type: physicochemical
Method: Phosphate or citrate buffering was used to stabilize pH. Points represent the mean of three observations. Error bars indicate standard deviation.
The metal leaching behavior of the GAC impregnated with Cd^2+ or CrO4^2− ions was determined using phosphate or citrate buffer solutions as described herein. […] This is consistent with studies that found cadmium and other metal cations sorbed to activated carbon most strongly at high pH. […] Also, chromate anions have increased sorption to activated carbon at low pH.
By delivering toxicity in the pH range where this transition between community types occurs, the metal-carbon formulations can prevent acidophile colonization. […] Cadmium cation sorption is more ideal for this corrosion prevention application because metal remains in solution as corrosion progresses to pH values below 6.

[3] = Leaching of metal from metal-carbon formulation in liquid media (total metal concentration); type: physicochemical
[4] = Cadmium and chromium in corrosion product and pore water of treated field specimens (ICP-MS), pore water pH; type: physicochemical; details: after 70 days, Experiment B
Method: Metal concentrations measured by inductively coupled plasma mass spectrometry (ICP-MS) of acid extracted samples.
Cadmium and chromium were measured in dry sieved corrosion products for the treated samples in Experiment B, and are presented both as ng/g dry sieved fines as well as μM in pore water (FIG. 9). These metals are typically present in Portland Cement at average concentrations of 0.34 ng/g Cd and 76 ng/g Cr. […] Aside from one chromium outlier at 71 days, metal concentrations in the dry fine material after 50 days stayed relatively constant between 400 and 800 ng/g.
Metal concentrations—micromolar levels of both cadmium and chomium—in pore water are also shown; these levels represent the concentrations which drive metal diffusion into bacterial cells on the corrosion front. Pore water concentrations increased to several μM after 70 days, and subsequently receded to less than 0.2 μM by the end of the experiment at 126 days (FIG. 9). This decrease is in pore water concentrations is due to a marked increase in surface moisture as the experiment progressed (up to 23% moisture), which diluted the released metal ions.

[5] = between pH 1 and pH 6; cited from earlier work
[6] = GAC impregnated with metal ions, phosphate or citrate buffer

| Compound | Effect on thiosulfate oxidation [1] | Sorption to GAC as function of pH [2, 6] | pH below which ions can resorb onto the carbon ([2]; pre-loaded GAC, buffered solutions) | Total metal concentration based on leaching experiments in media ([3]; pH 3) | Total metal concentration based on leaching experiments in media ([3]; pH 5) | Metal concentration in pore water [4] | Factor of increase of adsorption to activated carbon [5] | pH below which desorption from GAC increases [2, 6] |
| --- | --- | --- | --- | --- | --- | --- | --- | --- |
| [O]=[Cr](=[O])([O-])[O-] [CrO4^−2] | inhibit | sorb strongly at pH above 7 and pH below 5 | < 4 |  |  |  |  |  |
| [Cd] [cadmium] |  |  |  | 0.89 mM | 0.89 mM | several | 10 | below 6 |
| [Cr] [chromium] |  |  |  | 0.00456 mM | 0.000822 mM | several |  |  |
